# Results from patent US20200231638A1, “STABILIZED ANTI-MICROBIAL PEPTIDES” (priority 2015, published 2020).
# Bridge positions count the residues as written; N and C are the ends. Square brackets hold non-standard residues; d marks the D form. Ends that are not written are not given here. Peptide text beside a SMILES is read from it. R8 = C=CCCCCCC[C@@](C)(N)C(=O)O; S5 = C=CCCC[C@](C)(N)C(=O)O; Nle = CCCC[C@H](N)C(=O)O
# Columns and labels:
# S. aureus = assay type: cell-based, Staphylococcus aureus
# Procedure, shortened: (§1)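 Broth microdilution; anion-exchange-refined MHB; overnight culture at 37° C, diluted and regrown; inoculum 5×10^5 CFU/ml final; peptides serially diluted in water; 20-24 h, 37° C; MIC = lowest concentration without visible growth.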
# B. cereus = assay type: cell-based, Bacillus cereus
# Procedure, shortened: as §1
# P. aeruginosa = assay type: cell-based, Pseudomonas aeruginosa
# Procedure, shortened: as §1
# S. marcescens = assay type: cell-based
# Method: Antimicrobial Activity Assay:
# The following microbroth dilution protocol was adapted to determine the minimum inhibitory concentration (MIC) of each peptide. First, Mueller-Hinton broth (MHB) was passed through an anion exchange column to remove polyanionic species and generate refined MHB. […] Briefly, bacterial cells was grown overnight in refined MHB at 37° C. and then diluted and allowed to grow again for several hours. Serial dilutions of peptide stocks in water (10 μl) were prepared using clear round-bottom polypropylene 96-well plates. Then 90 μl of bacteria in refined MHB was added to give a final inoculum of 5×10^5 CFU/ml. The plates were then covered with porous tape to reduce evaporation, and incubated for 20-24 hours at 37° C. The MIC is the minimum peptide concentration at which no visible growth was observed.
# E. coli = assay type: cell-based, Escherichia coli
# Procedure, shortened: as §1
# [1] = Circular dichroism spectroscopy (α-helicity); assay type: physicochemical
# Method: To determine the helicity of the panel of stapled magainin II analogues, the peptides were dissolved in water using CD spectroscopy in the presence and absence of trifluoroethanol (TFE; 50% v/v), a helix-promoting solvent. […] Levels of helicity ranged from approximately 34% for MagStap 2 to 100% for MagStap 1 and 3, as compared to an idealized α-helical peptide. […] When the helicity in the presence of TFE was measured, most of the stapled analogues were 50-60% helical except for MagStap 3, which retained 100% α-helical content.
# Circular Dichroism Spectroscopy:
# Compounds were dissolved in an aqueous solution (e.g. 5 mM potassium phosphate solution at pH 7, or distilled H2O, to concentrations of 25-50 μM). Circular dichroism (CD) spectra were obtained on a spectropolarimeter (Aviv) using standard measurement parameters (e.g., temperature, 37° C.; wavelength, 190-260 nm; step resolution, 0.5 nm; speed, 20 nm/sec; accumulations, 10; response, 1 sec; bandwidth, 1 nm; path length, 0.1 cm). The α-helical content of each peptide was calculated by dividing the mean residue ellipticity by the reported value for a model helical decapeptide (see, e.g., Yang et al., Meth Enzymol. 130:208 (1986)).
# human red blood cells = assay type: cell-based
# Procedure, shortened: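 Washed human RBCs as 1% (v/v) suspension in phosphate-buffered saline incubated 1 h at 37° C with serially diluted peptides. Hemoglobin release in supernatant measured spectrophotometrically (570 nm), % hemolysis relative to untreated and 1% Triton-X100 controls; MHC defined as concentration giving less than 1% release.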
Compound,MIC S. aureus (S. aureus),MIC B. cereus (B. cereus),MIC P. aeruginosa (P. aeruginosa),MIC S. marcescens (S. marcescens),MIC E. coli (E. coli),α-helicity by CD in the presence of TFE ([1]; TFE 50% v/v),"α-helicity by CD in water, absence of TFE ([1]; aqueous solution, no TFE)",hemolytic activity (in words) (human red blood cells)
CC[C@H](C)[C@H](NC(=O)CN)C(=O)NCC(=O)N[C@@H](CCCCN)C(=O)N[C@@H](Cc1ccccc1)C(=O)N[C@@H](CC(C)C)C(=O)N[C@@H](CCCCN)C(=O)N[C@@H](CCCCN)C(=O)N[C@@H](C)C(=O)N[C@@H](CCCCN)C(=O)N[C@@H](CCCCN)C(=O)N[C@]1(C)CCCCCCC=CCCC[C@@](C)(C(=O)N[C@@H](CC(C)C)C(=O)N[C@@H](CCCCN)C(=O)N[C@@H](CCCCN)C(N)=O)NC(=O)[C@H](CCCCN)NC(=O)[C@H](C(C)C)NC(=O)[C@H](Cc2ccccc2)NC(=O)[C@H](C)NC(=O)[C@H](CCCCN)NC(=O)CNC1=O [PexStap 6] (H-GIGKFLKKAKK[R8]GKAFVK[S5]LKK-NH2; staple 12-19; N-terminus assumed),3.1 mg/L,6.3 mg/L,1.6 mg/L,>50 mg/L,3.1 mg/L,–,–,–
CCCC[C@H](NC(=O)[C@@H](NC(=O)[C@H](CCC(=O)O)NC(=O)[C@H](C)NC(=O)[C@@H](NC(=O)[C@]1(C)CCCC=CCCCCCC[C@@](C)(NC(=O)[C@H](C)NC(=O)[C@H](Cc2c[nH]cn2)NC(=O)[C@H](CC(C)C)NC(=O)[C@H](Cc2ccccc2)NC(=O)[C@H](CCCCN)NC(=O)CNC(=O)[C@@H](NC(=O)CN)[C@@H](C)CC)C(=O)N[C@@H](CCCCN)C(=O)N[C@@H](CCCCN)C(=O)N[C@@H](Cc2ccccc2)C(=O)N[C@@H](C)C(=O)N[C@@H](CCCCN)C(=O)N[C@@H](C)C(=O)N1)C(C)C)[C@@H](C)CC)C(=O)N[C@@H](CC(N)=O)C(=O)N[C@@H](CO)C(N)=O [MagStap 3] (H-GIGKFLHA[R8]KKFAKA[S5]VAEI[Nle]NS-NH2; staple 9-16; N-terminus assumed),–,6.2 mg/L,–,>50 mg/L,3.1 mg/L,100%,100%,–
CCCC[C@H](NC(=O)[C@]1(C)CCCC=CCCCCCC[C@@](C)(NC(=O)[C@H](Cc2ccccc2)NC(=O)[C@H](CCCCN)NC(=O)[C@H](CCCCN)NC(=O)[C@H](C)NC(=O)[C@H](C)NC(=O)[C@H](Cc2c[nH]cn2)NC(=O)[C@H](CC(C)C)NC(=O)[C@H](Cc2ccccc2)NC(=O)[C@H](CCCCN)NC(=O)CNC(=O)[C@@H](NC(=O)CN)[C@@H](C)CC)C(=O)N[C@@H](CCCCN)C(=O)N[C@@H](C)C(=O)N[C@@H](Cc2ccccc2)C(=O)N[C@@H](C(C)C)C(=O)N[C@@H](C)C(=O)N[C@@H](CCC(=O)O)C(=O)N1)C(=O)N[C@@H](CC(N)=O)C(=O)N[C@@H](CO)C(N)=O [MagStap 7] (H-GIGKFLHAAKKF[R8]KAFVAE[S5][Nle]NS-NH2; staple 13-20; N-terminus assumed),–,6.2 mg/L,–,>50 mg/L,6.2 mg/L,–,–,–
CCCC[C@H](NC(=O)[C@@H](NC(=O)[C@H](CCC(=O)O)NC(=O)[C@H](C)NC(=O)[C@]1(C)CCCC=CCCCCCC[C@@](C)(NC(=O)[C@H](C)NC(=O)[C@H](C)NC(=O)[C@H](Cc2c[nH]cn2)NC(=O)[C@H](CC(C)C)NC(=O)[C@H](Cc2ccccc2)NC(=O)[C@H](CCCCN)NC(=O)CNC(=O)[C@@H](NC(=O)CN)[C@@H](C)CC)C(=O)N[C@@H](CCCCN)C(=O)N[C@@H](Cc2ccccc2)C(=O)N[C@@H](C)C(=O)N[C@@H](CCCCN)C(=O)N[C@@H](C)C(=O)N[C@@H](Cc2ccccc2)C(=O)N1)[C@@H](C)CC)C(=O)N[C@@H](CC(N)=O)C(=O)N[C@@H](CO)C(N)=O [MagStap 4] (H-GIGKFLHAA[R8]KFAKAF[S5]AEI[Nle]NS-NH2; staple 10-17; N-terminus assumed),–,6.2 mg/L,–,>50 mg/L,12.5 mg/L,–,–,highest hemolytic activity
CCCC[C@H](NC(=O)[C@@H](NC(=O)[C@]1(C)CCCC=CCCCCCC[C@@](C)(NC(=O)[C@H](CCCCN)NC(=O)[C@H](CCCCN)NC(=O)[C@H](C)NC(=O)[C@H](C)NC(=O)[C@H](Cc2c[nH]cn2)NC(=O)[C@H](CC(C)C)NC(=O)[C@H](Cc2ccccc2)NC(=O)[C@H](CCCCN)NC(=O)CNC(=O)[C@@H](NC(=O)CN)[C@@H](C)CC)C(=O)N[C@@H](C)C(=O)N[C@@H](CCCCN)C(=O)N[C@@H](C)C(=O)N[C@@H](Cc2ccccc2)C(=O)N[C@@H](C(C)C)C(=O)N[C@@H](C)C(=O)N1)[C@@H](C)CC)C(=O)N[C@@H](CC(N)=O)C(=O)N[C@@H](CO)C(N)=O [MagStap 6] (H-GIGKFLHAAKK[R8]AKAFVA[S5]I[Nle]NS-NH2; staple 12-19; N-terminus assumed),–,3.1 mg/L,–,>50 mg/L,3.1 mg/L,–,–,–
CCCC[C@H](NC(=O)[C@@H](NC(=O)[C@H](CCC(=O)O)NC(=O)[C@]1(C)CCCC=CCCCCCC[C@@](C)(NC(=O)[C@H](CCCCN)NC(=O)[C@H](C)NC(=O)[C@H](C)NC(=O)[C@H](Cc2c[nH]cn2)NC(=O)[C@H](CC(C)C)NC(=O)[C@H](Cc2ccccc2)NC(=O)[C@H](CCCCN)NC(=O)CNC(=O)[C@@H](NC(=O)CN)[C@@H](C)CC)C(=O)N[C@@H](Cc2ccccc2)C(=O)N[C@@H](C)C(=O)N[C@@H](CCCCN)C(=O)N[C@@H](C)C(=O)N[C@@H](Cc2ccccc2)C(=O)N[C@@H](C(C)C)C(=O)N1)[C@@H](C)CC)C(=O)N[C@@H](CC(N)=O)C(=O)N[C@@H](CO)C(N)=O [MagStap 5] (H-GIGKFLHAAK[R8]FAKAFV[S5]EI[Nle]NS-NH2; staple 11-18; N-terminus assumed),–,12.5 mg/L,–,>50 mg/L,12.5 mg/L,–,–,lowest hemolytic activity
CC[C@H](C)[C@H](NC(=O)CN)C(=O)NCC(=O)N[C@@H](CCCCN)C(=O)N[C@@H](Cc1ccccc1)C(=O)N[C@@H](CC(C)C)C(=O)N[C@@H](CCCCN)C(=O)N[C@]1(C)CCCCCCC=CCCC[C@@](C)(C(=O)N[C@@H](Cc2ccccc2)C(=O)N[C@H](C(=O)N[C@@H](CCCCN)C(=O)N[C@H](C(=O)N[C@@H](CC(C)C)C(=O)N[C@@H](CCCCN)C(=O)N[C@@H](CCCCN)C(N)=O)[C@@H](C)CC)C(C)C)NC(=O)[C@H](CCCCN)NC(=O)CNC(=O)[C@H](Cc2ccccc2)NC(=O)[C@H](CCCCN)NC(=O)[C@H](CCCCN)NC(=O)[C@H](C)NC1=O [PexStap 2] (H-GIGKFLK[R8]AKKFGK[S5]FVKILKK-NH2; staple 8-15; N-terminus assumed),3.1 mg/L,3.1 mg/L,3.1 mg/L,>50 mg/L,3.1 mg/L,–,–,–
CC[C@H](C)[C@H](NC(=O)CN)C(=O)NCC(=O)N[C@@H](CCCCN)C(=O)N[C@@H](Cc1ccccc1)C(=O)N[C@@H](CC(C)C)C(=O)N[C@@H](CCCCN)C(=O)N[C@@H](CCCCN)C(=O)N[C@@H](C)C(=O)N[C@@H](CCCCN)C(=O)N[C@]1(C)CCCCCCC(O)C(O)CCC[C@@](C)(C(=O)N[C@H](C(=O)N[C@@H](CC(C)C)C(=O)N[C@@H](CCCCN)C(=O)N[C@@H](CCCCN)C(N)=O)[C@@H](C)CC)NC(=O)[C@H](C(C)C)NC(=O)[C@H](Cc2ccccc2)NC(=O)[C@H](C)NC(=O)[C@H](CCCCN)NC(=O)CNC(=O)[C@H](Cc2ccccc2)NC1=O (some centres unmarked) [PexDiol 5],3.1 mg/L,3.1 mg/L,1.6 mg/L,>50 mg/L,1.6 mg/L,–,–,significant hemolytic activity
"GIGKFLKKAKKFGKAFVKILKK-NH2 [Pexiganan, reference compound]",6.3 mg/L,3.1 mg/L,1.6 mg/L,>50 mg/L,3.3 mg/L,–,–,no hemolysis
